Experiments:
MMP-3 = biological target: T1, MMP-3 (Homo sapiens, UniProt P08254); format: biochemical; details: 6 µM P218 substrate, approximately 0.5 to 0.8 nM MMP, 25 min. at 37°C, pH 6.5
T1 construct: made in house; host or cells: CHO cells
Text: (§1) The P218 quenched fluorescence assay (Microfluorometric Profiling Assay) is a modification of that originally described by Knight, et al., FEBS Lett. 296, 263, 1992 for a related substance and a variety of matrix metalloproteinases (MMPs) in cuvettes. The assay was run with each invention compound and the three MMPs. MMP-3, MMP-9 and MMP-2, analyzed in parallel. adapted as follows for a 96-well microtiter plate and a Hamilton AT® workstation.
(§2) P218 Fluorogenic Substrate: P218 is a synthetic substrate containing a 4-acetyl-7-methoxycoumarin ( MCA) group in the N-terminal position and a 3-[2,4-dinitrophenyl]-L-2,3-diaminopropionyl (DPA) group internally. This is a modification of a peptide reported by Knight (1992) that was used as a substrate for matrix metalloptoteinases. Once the P218 peptide is cleaved (putative clip site at the Ala-Leu bond), the fluorescence of the MCA group can be detected on a fluorometer with excitation at 328 nm and emission at 393 nm. P218 is currently being produced by BACHEM Bioscience, Inc.exclusively for the Bayer Corporation. P218 has the structure: [formula]
Recombinant Human CHO Pro-MMP-3: Human CHO pro-stromelysin-257 (pro-MMP-3) was expressed and purified as described by Housley, et al., J. Biol. Chem. 268, 4481, 1993.
Activation of Pro-MMP-3: Pro-MMP-3 at 1.72 µM (100 µg/mL) in 5 mM Tris at pH 7.5, 5 mM CaCl2, 25 mM NaCl, and 0.005% Brij-35 (MMP-3 activation buffer) was activated by incubation with TPCK (N-tosyl-(L)-phenylalanine chioromethyl ketone) trypsin (1:100 w/w to pro-MMP-3) at 25 °C for 30 min. The reaction was stopped by addition of soybean trypsin inhibitor (SBTI; 5:1 w/w to trypsin concentration). This activation protocol results in the formation of 45 kDa active MMP-3, which still contains the C-tenninal portion of the enzyme.
(§3) Hamiltion Microlab AT Plus: The MMP-Profiling Assay was performed robotically on a Hamilton MicroLab AT Plus®. The Hamilton was programmed to: (1) serially dilute up to 11 potential inhibitors automatically from a 2.5 mM stock in 100% DMSO; (2) distribute substrate followed by inhibitor into a 96 well Cytofluor plate; and (3) add a single enzyme to the plate with mixing to start the reaction. Subsequent plates for each additional enzyme were prepared automatically by beginning the program at the substrate addition point, remixing the diluted inhibitors and beginning the reaction by addition of enzyme. In this way, all MMP assays were done using the same inhibitor dilutions.
(§4) Millipore Cytofluor II. Following incubation, the plate was read on a Cytofluor II fluoromeiric plate reader with excitation at 340 nm and emission at 395 nm with the gain set at 80.
(§5) Microfluorometric Reaction Buffer (MRB): Dilution of test compounds, enzymes, and P218 substrate for the microfluorometric assay were made in microfluorometric reaction buffer consisting of 50 mM 2-(N-morpholino)ethanesulfonic acid (MES) at pH 6.5 with 10 mM CaCl2, 150 mM NaCl. 0.005% Brij-35 and 1% DMSO.
(§6) MMP Microfluorometric Profiling Assay. The assay was done with a final substrate concentration of 6 µM P218 and approximately 0.5 to 0.8 nM MMP with variable drug concentrations. The Hamilton was programmed to serially dilute up to 11 compounds from a 2.5 mM stock (100% DMSO) to 10x the final compounds concentrations in the assay. Initially, the instrument delivered various amounts of microfluorometric reaction buffer (MRB) to a 96 tube rack of 1 mL Marsh dilution tubes. The instrument then picked up 20 µL of inhibitor (2.5 mM) from the sample rack and mixes it with a buffer in row A of the Marsh rack, resulting in a 50 µM drug concentration. The inhibitors were then serially diluted to 10, 5, 1, .2, 0.05 and 0.01 µM. […] The instrument re-mixed and loads 14.5 µL of diluted compound from rows A to G in the Marsh rack to corresponding rows in the microtiter plate. (Row H represents the "background" row and 39.5 µL of MRB was delivered in placed of drug or enzyme). […]

MMP-9 = biological target: T2, MMP-9 (Homo sapiens, UniProt P14780); format: biochemical; details: 6 µM P218 substrate, approximately 0.5 to 0.8 nM MMP, 25 min. at 37°C, pH 6.5
T2 construct: made in house
Text: as §1, §2
Recombinant Human Pro-MMP-9: Human pro-gelatinase B (pro-MMP-9) derived from U937 cDNA as described by Wilhelm, et al. J. Biol. Chem. 264, 17213, 1989 was expressed as the full-length form using a baculovirus protein expression system. The pro-enzyme was purified using methods previously described by Hibbs, et al. J. Biol. Chem. 260, 2493, 1984.
Activation of Pro-MMP-9: […] 20 µg/mL in 50 mM Tris at pH 7.4, 10mM […], 150 mM NaCl, and 0.005% Brij-35 (MMP-9 activation buffer) was activated by incubation with 0 5 mM p-aminophenylmercuric acetate (APMA) for 3.5 h at 37 °C. The enzyme was dialyzed against the same buffer to remove the APMA.
as §3, §4, §5, §6

MMP-2 = biological target: T3, MMP-2 (Homo sapiens, UniProt P08253); assay: biochemical
T3 sequence (P08253 110-660): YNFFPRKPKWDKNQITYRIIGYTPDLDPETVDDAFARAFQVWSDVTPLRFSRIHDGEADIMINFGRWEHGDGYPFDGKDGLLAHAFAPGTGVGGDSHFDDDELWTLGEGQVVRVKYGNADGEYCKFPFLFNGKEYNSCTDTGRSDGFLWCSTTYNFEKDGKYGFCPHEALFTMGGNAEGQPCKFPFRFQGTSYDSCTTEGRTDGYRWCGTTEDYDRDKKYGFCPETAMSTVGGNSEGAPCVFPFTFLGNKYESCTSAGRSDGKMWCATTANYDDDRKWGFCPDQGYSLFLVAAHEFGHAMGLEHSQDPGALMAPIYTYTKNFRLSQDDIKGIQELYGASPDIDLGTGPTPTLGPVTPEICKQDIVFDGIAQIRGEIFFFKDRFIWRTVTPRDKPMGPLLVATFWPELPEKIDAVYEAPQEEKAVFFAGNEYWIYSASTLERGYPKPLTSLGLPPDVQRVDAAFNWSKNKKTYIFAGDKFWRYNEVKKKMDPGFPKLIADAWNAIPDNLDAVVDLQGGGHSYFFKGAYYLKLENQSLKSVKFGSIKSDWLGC

T1 sequence (P08254 100-477): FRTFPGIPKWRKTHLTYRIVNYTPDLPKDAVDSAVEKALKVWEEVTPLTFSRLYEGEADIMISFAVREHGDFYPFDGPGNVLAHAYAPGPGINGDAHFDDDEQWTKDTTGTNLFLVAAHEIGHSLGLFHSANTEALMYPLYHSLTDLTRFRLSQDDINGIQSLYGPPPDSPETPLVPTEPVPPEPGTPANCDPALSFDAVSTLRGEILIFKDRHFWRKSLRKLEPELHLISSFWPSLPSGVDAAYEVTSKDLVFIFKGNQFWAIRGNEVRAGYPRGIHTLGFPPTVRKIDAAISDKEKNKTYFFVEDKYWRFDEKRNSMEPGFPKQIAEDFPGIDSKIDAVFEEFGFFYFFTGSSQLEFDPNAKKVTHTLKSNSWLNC
T2 sequence (P14780 107-707 limits assumed): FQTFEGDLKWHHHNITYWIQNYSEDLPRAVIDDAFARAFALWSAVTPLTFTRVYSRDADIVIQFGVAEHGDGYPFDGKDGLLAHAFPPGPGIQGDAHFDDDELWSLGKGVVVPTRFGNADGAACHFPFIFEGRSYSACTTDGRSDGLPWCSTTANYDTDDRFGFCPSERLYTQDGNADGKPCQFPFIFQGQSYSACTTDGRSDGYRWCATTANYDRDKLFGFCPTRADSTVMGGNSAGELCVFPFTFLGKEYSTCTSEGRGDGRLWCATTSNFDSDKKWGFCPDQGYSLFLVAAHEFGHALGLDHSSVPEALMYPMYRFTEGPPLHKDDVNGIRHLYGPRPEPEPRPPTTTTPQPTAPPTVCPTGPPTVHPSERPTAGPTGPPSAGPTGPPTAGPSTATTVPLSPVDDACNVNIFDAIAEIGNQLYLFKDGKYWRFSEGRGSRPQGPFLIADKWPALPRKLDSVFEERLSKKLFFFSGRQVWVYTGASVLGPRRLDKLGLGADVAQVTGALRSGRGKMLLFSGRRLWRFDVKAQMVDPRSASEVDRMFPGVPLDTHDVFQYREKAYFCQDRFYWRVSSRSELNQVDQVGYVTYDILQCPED

## COc1ccc(C(=O)CCCC(CC(=O)c2ccc(-c3ccc(Cl)cc3)cc2)C(=O)O)cc1 (stereo not drawn) [Compound X, 4'-chloro-α-[4-(4-methoxyphenyl)-4-oxobutyl]-γ-oxo-[1,1'-biphenyl]-4-butanoic acid]
MMP-3
  IC50: 122 nM
MMP-9
  IC50: 145 nM
MMP-2
  IC50: 25.1 nM

## CC(C)c1ccc(C(=O)CCCC(CC(=O)c2ccc(-c3ccc(Cl)cc3)cc2)C(=O)O)cc1 (stereo not drawn) [Compound XV, 4'-chloro-α-[4-[4-(1-methylethyl)phenyl]-4-oxobutyl]-γ-oxo-[1,1'-biphenyl]-4-butanoic acid]
MMP-3
  IC50: 130 nM
MMP-9
  IC50: 133 nM
MMP-2
  IC50: 35.7 nM

## COc1ccccc1C(=O)CCCC(CC(=O)c1ccc(-c2ccc(Cl)cc2)cc1)C(=O)O (stereo not drawn) [Compound XVI, 4'-chloro-α-[4-(2-methoxyphenyl)-4-oxobutyl]-γ-oxo-[1,1'-biphenyl]-4-butanoic acid]
MMP-3
  IC50: 48.2 nM
MMP-9
  IC50: 152 nM
MMP-2
  IC50: 26.2 nM

## O=C(CCCC(CC(=O)c1ccc(-c2ccc(Cl)cc2)cc1)C(=O)O)c1ccccc1 (stereo not drawn) [I, 4'-chloro-y-oxo-α-(4-oxo-4-phenylbutyl)-[1,1'-biphenyl]-4-butanoic acid]
MMP-3
  IC50: 65 nM
MMP-9
  IC50: 65.7 nM
MMP-2
  IC50: 9.97 nM

## O=C(CCC(CC(=O)c1ccc(-c2ccc(Cl)cc2)cc1)C(=O)O)c1ccccc1 (stereo not drawn) [II, 4'-chloro-y-oxo-α-(3-oxo-3-phenylpropyl)-[1,1'-biphenyl]-4-butanoic acid]
MMP-3
  IC50: 96 nM
MMP-9
  IC50: 127 nM
MMP-2
  IC50: 9.6 nM

## O=C(CCCCC(CC(=O)c1ccc(-c2ccc(Cl)cc2)cc1)C(=O)O)c1ccccc1 (stereo not drawn) [III, 4'-chloro-γ-oxo-α-(5-oxo-5-phenylpentyl)-[1,1'-biphenyl]-4-butanoic acid]
MMP-3
  IC50: 61.1 nM
MMP-9
  IC50: 52.4 nM
MMP-2
  IC50: 7.52 nM

## O=C(CCCCCC(CC(=O)c1ccc(-c2ccc(Cl)cc2)cc1)C(=O)O)c1ccccc1 (stereo not drawn) [IV, 4'-chloro-γ-oxo-α-(6-oxo-6-phenylhexyl)-[1,1'-biphenyl]-4-butanoic acid]
MMP-3
  IC50: 109 nM
MMP-9
  IC50: 175 nM
MMP-2
  IC50: 34.1 nM

## O=C(CCCC(CC(=O)c1ccc(-c2ccc(Cl)cc2)cc1)C(=O)O)c1ccc(Br)cc1 (stereo not drawn) [IX]
MMP-3
  IC50: 125 nM
MMP-9
  IC50: 131 nM
MMP-2
  IC50: 28.3 nM

## Cc1ccc(C(=O)CCCC(CC(=O)c2ccc(-c3ccc(Cl)cc3)cc2)C(=O)O)cc1 (stereo not drawn) [VIII, 4'-chloro-α-[4-(4-methylphenyl)-4-oxobutyl]-γ-oxo-[1,1'-biphenyl]-4-butanoic acid]
MMP-3
  IC50: 69.1 nM
MMP-9
  IC50: 108 nM
MMP-2
  IC50: 19 nM

## O=C(CCCC(CC(=O)c1ccc(-c2ccc(Cl)cc2)cc1)C(=O)O)c1ccc(Oc2ccccc2)cc1 (stereo not drawn) [VII]
MMP-3
  IC50: 367 nM
MMP-9
  IC50: 65.7 nM
MMP-2
  IC50: 131 nM

## Cc1cc(C)c(C(=O)CCCC(CC(=O)c2ccc(-c3ccc(Cl)cc3)cc2)C(=O)O)c(C)c1 (stereo not drawn) [VI]
MMP-3
  IC50: 39.6 nM
MMP-9
  IC50: 1310 nM
MMP-2
  IC50: 30.8 nM

## COc1cc(OC)c(C(=O)CCCC(CC(=O)c2ccc(-c3ccc(Cl)cc3)cc2)C(=O)O)c(OC)c1 (stereo not drawn) [V]
MMP-3
  IC50: 71.7 nM
MMP-9
  IC50: 132 nM
MMP-2
  IC50: 8.13 nM

## COc1ccc(C(=O)CCCC(CC(=O)c2ccc(-c3ccc(Cl)cc3)cc2)C(=O)O)c(OC)c1 (stereo not drawn) [XII, 4'-chloro-α-[4-(2,4-dimethoxyphenyl)-4-oxobutyl]-γ-oxo-[1,1'-biphenyl]-4-butanoic acid]
MMP-3
  IC50: 115 nM
MMP-9
  IC50: 225 nM
MMP-2
  IC50: 25.1 nM

## CC(C)(C)c1ccc(C(=O)CCCC(CC(=O)c2ccc(-c3ccc(Cl)cc3)cc2)C(=O)O)cc1 (stereo not drawn) [XIII]
MMP-3
  IC50: 222 nM
MMP-9
  IC50: 167 nM
MMP-2
  IC50: 71.6 nM

## CCc1ccc(C(=O)CCCC(CC(=O)c2ccc(-c3ccc(Cl)cc3)cc2)C(=O)O)cc1 (stereo not drawn) [XIV, 4'-chloro-α-[4-(4-ethylphenyl)-4-oxobutyl]-γ-oxo-[1,1'-biphenyl]-4-butanoic acid]
MMP-3
  IC50: 89 nM
MMP-9
  IC50: 126 nM
MMP-2
  IC50: 29.4 nM

## Cc1ccc(C(=O)CCCC(CC(=O)c2ccc(-c3ccc(Cl)cc3)cc2)C(=O)O)cc1C (stereo not drawn) [XI]
MMP-3
  IC50: 104 nM
MMP-9
  IC50: 105 nM
MMP-2
  IC50: 48.3 nM
